Source: patent US7297714B2, “Inhibitors of cathepsin S” (IRM LLC, priority 2003, dated 2007)
pKi: −log10 of the molar value.

What was measured:
Format in all cases: biochemical
Cathepsin S = Cathepsin S (Homo sapiens, UniProt P25774); experiment: Cathepsin S inhibition assay (fluorogenic peptide substrate); details: Cathepsin S inhibition constant; pH5.5; read-out: Ki Cat. S
Excerpt: “Inhibition constant”, Ki, is the dissociation constant of the enzyme-inhibitor complex, or the reciprocal of the binding affinity of the inhibitor to the enzyme. For classical inhibition the value of Ki is much greater than the enzyme concentration and the Ki can be measured by monitoring the rate of reaction for a competitive substrate at multiple inhibitor concentrations. The inhibited rates are then fit by nonlinear regression to the following equation: […]
The assumption being made for the classical inhibition described above is that the free inhibitor concentration is equal to the total inhibitor concentration. For inhibitors that have Ki's that are approximately equal to the enzyme concentration [E], the assumption that the free inhibitor concentration is equal to the total inhibitor concentration is no longer valid and an alternative equation has to be fit for determination of the apparent inhibition constant, Ki^app using described methods (Kuzmic, P., K. C. Elrod, et al., Anal Biochem 2000, 286(1), 45-50):
(§1) The optimal substrate for cathepsin S, acetyl-histidine-proline-valine-lysine-amino carbamoyl coumarin, was identified from screening a combinatorial library of fluorogenic peptide substrates (Harris, J. L., B. J. Backes, et al., Proc Natl Acad Sci U S A 2000, 97(14), 7754-9). Kinetic measurements are performed in a total reaction volume of 30 μl in 384-well microtiter plates. Cathepsin S, at a final concentration of 0.3-3 nM (active site), is incubated with the compounds at twelve varying concentrations in a buffer containing 100 mM NaAc (pH5.5), 1 mM EDTA, 100 mM NaCl, 0.01% Brij-35 for 20 minutes at room temperature. Control reactions in the absence of inhibitor are performed in replicates of 24. The reactions are initiated by adding the substrate, acetyl-histidine-proline-valine-lysine-amino carbamoyl coumarin, to a final concentration of 50 μM. The rate of substrate hydrolysis is measured by monitoring the increase in fluorescence at an excitation wavelength of 380 nm and an emission wavelength of 450 nm that results from cleavage of the aniline bond in the substrate by the enzyme. The apparent inhibition constants for the compounds are determined from the enzyme progress curves (Kuzmic, P., K. C. Elrod, et al., Anal Biochem 2000, 286(1), 45-50) and are then used to calculate the inhibition constants for competitive inhibitors.

Cathepsin K = target: T1, Cathepsin K (Homo sapiens, UniProt P43235); experiment: Cathepsin K inhibition assay, selectivity for cathepsin S over cathepsin K; details: ratio of cathepsin K inhibition constant to cathepsin S inhibition constant
T1 sequence (P43235 115-329): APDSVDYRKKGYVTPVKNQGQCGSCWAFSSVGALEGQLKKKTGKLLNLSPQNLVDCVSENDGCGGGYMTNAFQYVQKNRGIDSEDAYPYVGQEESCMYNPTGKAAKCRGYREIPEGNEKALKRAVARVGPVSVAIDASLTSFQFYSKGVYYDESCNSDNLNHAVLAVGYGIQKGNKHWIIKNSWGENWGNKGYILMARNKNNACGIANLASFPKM
Procedure: as §1, with “cathepsin K, acetyl-lysine-histidine-proline-lysine-amino” for “cathepsin S, acetyl-histidine-proline-valine-lysine-amino”, “Sci USA” for “Sci U S A”, “Cathepsin K,” for “Cathepsin S,”, “of 3.5” for “of 0.3-3”, “substrate, acetyl-lysine-histidine-proline-lysine-amino” for “substrate, acetyl-histidine-proline-valine-lysine-amino”, “of 40” for “of 50”
(§2) Selectivity for cathepsin S in the presence of cathepsin isozymes was determined by the ratio of the cathepsin isozyme inhibition constant of a compound of the present invention to the cathepsin S inhibition constant of the same compound. Preferred compounds of the present invention selective for cathepsin S have ratios of greater than 10. More preferred compounds of the present invention selective for cathepsin S have ratios of greater than 100. Most preferred compounds of the present invention selective for cathepsin S have ratios of greater than 1000.

Cathepsin L = Cathepsin L (Homo sapiens, UniProt P07711); experiment: Cathepsin L inhibition assay, selectivity for cathepsin S over cathepsin L; details: ratio of cathepsin L inhibition constant to cathepsin S inhibition constant
Sequence of Cathepsin L (P07711 114-333, species assumed): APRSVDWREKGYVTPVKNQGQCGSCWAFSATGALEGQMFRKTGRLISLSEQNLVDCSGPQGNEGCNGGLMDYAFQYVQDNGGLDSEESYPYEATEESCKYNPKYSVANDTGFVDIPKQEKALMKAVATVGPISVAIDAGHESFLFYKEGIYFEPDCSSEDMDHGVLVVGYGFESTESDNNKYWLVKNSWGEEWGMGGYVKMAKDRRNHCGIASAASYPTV
Procedure: The optimal substrate for cathepsin L, acetyl-histidine-lysine-phenylalanine-lysine-amino carbamoyl coumarin, was identified from screening a combinatorial library of fluorogenic peptide substrates (Harris, J. L., B. J. Backes, et al.; Proc Natl Acad Sci USA 2000, 97(14), 7754-9). Kinetic measurements are performed in a total reaction volume of 30 μl in 384-well microtiter plates. Cathepsin L, at a final concentration of 0.1 nM (active site), is incubated with the compounds at twelve varying concentrations in a buffer containing 100 mM NaAc (pH5.5), 1 mM EDTA, 100 mM NaCl, 0.01% Brij-35 for 20 minutes at room temperature. Control reactions in the absence of inhibitor are performed in replicates of 24. The reactions are initiated by adding the substrate, acetyl-histidine-lysine-phenylalanine-lysine-amino carbamoyl coumarin, to a final concentration of 20 μM. The rate of substrate hydrolysis is measured by monitoring the increase in fluorescence at an excitation wavelength of 380 nm and an emission wavelength of 450 nm that results from cleavage of the aniline bond in the substrate by the enzyme. The apparent inhibition constants for the compounds are determined from the enzyme progress curves (Kuzmic, P., K. C. Elrod, et al., Anal Biochem 2000, 286(1), 45-50) and are then used to calculate the inhibition constants for competitive inhibitors.
as §2

Cathepsin B = Cathepsin B (Homo sapiens, UniProt P07858); experiment: Cathepsin B inhibition assay, selectivity for cathepsin S over cathepsin B; details: ratio of cathepsin B inhibition constant to cathepsin S inhibition constant
Procedure: as §1, with “cathepsin B,” for “cathepsin S,”, “Sci US” for “Sci U S”, “Cathepsin B,” for “Cathepsin S,”, “of 1.5” for “of 0.3-3”, “of 10” for “of 50”
as §2

Sequence of Cathepsin S (P25774 115-331, species assumed): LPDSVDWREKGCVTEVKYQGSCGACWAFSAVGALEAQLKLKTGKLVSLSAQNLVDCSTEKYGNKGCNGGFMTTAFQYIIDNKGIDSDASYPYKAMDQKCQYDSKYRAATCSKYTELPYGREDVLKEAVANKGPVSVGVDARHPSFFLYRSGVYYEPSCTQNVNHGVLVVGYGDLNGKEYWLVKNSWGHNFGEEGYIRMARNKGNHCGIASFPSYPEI

SMILES | pKi (Cathepsin S) | Selectivity for Cat. S over Cat. K (Cathepsin K) | Selectivity for Cat. S over Cat. L (Cathepsin L) | Selectivity for Cat. S over Cat. B (Cathepsin B)
O=C1C[C@H](NC(=O)[C@H](CC2CCCC2)NC(=O)OC2CCOCC2)C(O)O1 (stereo partly drawn) [Example 20, (3S)-(3-Cyclopentyl-(2S)-(tetrahydro-pyran-4-yloxycarbonylamino)-propionylamino)-4-oxo-butyric acid] | > 7.00 | ++ (++, >100) | ++ (++, >100) | +++ (+++, >1000)
N#Cc1cccc(C(=O)N[C@@H](CC2CCCC2)C(=O)N[C@H]2CC(=O)OC2O)c1 (stereo partly drawn) [Example 18, (3S)-((2S)-(3-cyanophenyl-carbonylamino)-3-cyclopentyl-propionylamino)-4-oxo-butyric acid] | > 7.00 | ++ (++, >100) | + (+, >10) | +++ (+++, >1000)
